# Data reported in publication PMC8126888 (RSC Medicinal Chemistry, 2020).
# Like-named read-outs stand apart in the source and are kept apart here.
# Key:
# [1] = system: primary peritoneal mouse macrophages (PMM); test: cells; details: Macrophage
# in vitro [2] = details: human, microsomes, human liver microsomes
# in vitro [3] = details: PAMPA
# [4] = system: Trypanosoma cruzi, Tulahuen CL2, beta-galactosidase strain; test: microbe, parasite or virus in culture
# [5] = system: Leishmania infantum MHOM/MA(BE)/67/ITMAP263 intracellular amastigotes; test: microbe, parasite or virus in culture; details: Macrophage, in Mus musculus
# in vitro [6] = details: human
# physchem = details: HPLC, Ascentis Express RP Amide column, pH 7.4, eLogD, experimental
# in vitro [7] = details: mouse, microsomes, pH 7.4, MLM CLint (uL/min/mg), mouse liver microsomes
# in vitro [8] = details: human, HepG2 cells
# in vitro [9] = details: PAMPA; remark: listed apart in the source
# in vitro [10] = details: human, HFF-1 cells
# [11] = MRC5, read-out: T. cruzi Tulahuen C4 (LacZ) IC50
# [12] = read-out: L. Inf. pIC50, from L. infantum intracellular amastigote IC50 (converted)
# [13] = read-out: L. infantum MHOM/MA(BE)/67/ITMAP263 intracellular amastigotes IC50, intracellular amastigotes
# [14] = MRC5, read-out: T. cruzi Tulahuen C4 (LacZ) IC50 (uM)
# [15] = read-out: L. infantum MHOM/MA(BE)/67/ITMAP263 intracellular amastigotes IC50 (uM), intracellular amastigotes
Compound,IC50 ([1]; read-out: PMM IC50),"microsomal CLint at 0.5 μM (in vitro [2]; pH 7.4, HLM CLint)",Papp (in vitro [3]),"IC50 [4, 11]","IC50 [5, 12]","IC50 [5, 13]",CC50 at 3 days (in vitro [6]),chromatographic logD (physchem),IC50 ([1]; read-out: PMM IC50 (uM)),"microsomal CLint at 0.5 μM (in vitro [2]; pH 7.4, HLM CLint (uL/min/mg))",microsomal CLint at 0.5 μM (in vitro [7]),CC50 (in vitro [8]),Papp (in vitro [9]),"IC50 [4, 14]","IC50 [5, 15]",CC50 (in vitro [10])
COc1ccc(C#N)cc1S(=O)(=O)N(Cc1ccccc1)Cc1ccccc1 [DNDI0003366138],> 64 µM,304 µL/min/mg,39.3 nm/s,8.16 µM,0.437 µM,0.44 µM,40.4 µM,–,–,–,–,–,–,–,–,–
CN(C)CCN(Cc1ccccc1)S(=O)(=O)c1ccccc1S(C)(=O)=O [DNDI0003367255],> 64 µM,–,20.4 nm/s,> 64 µM,> 64 µM,> 64 µM,> 64 µM,2.6,–,–,–,–,–,–,–,–
COc1ccc(OC)c(S(=O)(=O)N(Cc2ccccc2)C2CCCN(C(C)=O)C2)c1 (stereo not shown) [DNDI0003367307],> 64 µM,–,164 nm/s,54.3 µM,> 64 µM,> 64 µM,> 64 µM,3.3,–,–,–,–,–,–,–,–
COc1ccc(C(=O)O)cc1S(=O)(=O)N(Cc1ccccc1)Cc1ccccc1 [DNDI0003368287],> 64 µM,< 23 µL/min/mg,178 nm/s,> 64 µM,57.5 µM,57 µM,> 64 µM,–,–,–,–,–,–,–,–,–
O=S(=O)(c1cc(F)ccc1F)N(CCO)Cc1ccccc1 [DNDI0003368289],> 64 µM,< 23 µL/min/mg,157 nm/s,47.2 µM,> 64 µM,> 64 µM,> 64 µM,3.2,–,–,–,–,–,–,–,–
CN(C)CCN(Cc1ccccc1)S(=O)(=O)c1ccc(N)cc1 [DNDI0003368290],> 64 µM,56 µL/min/mg,8.8 nm/s,> 64 µM,> 64 µM,> 64 µM,> 64 µM,2.5,–,–,–,–,–,–,–,–
CN(C)CCN(Cc1ccccc1)S(=O)(=O)c1ccc(N2C(=O)CCC2=O)cc1 [DNDI0003368291],> 64 µM,< 23 µL/min/mg,16.4 nm/s,> 64 µM,> 64 µM,> 64 µM,> 64 µM,2.5,–,–,–,–,–,–,–,–
CN(C)CCN(Cc1ccccc1)S(=O)(=O)c1ccc(NC(=O)CCCO)cc1 [DNDI0003368293],> 64 µM,< 23 µL/min/mg,2.1 nm/s,> 64 µM,> 64 µM,> 64 µM,> 64 µM,2.9,–,–,–,–,–,–,–,–
COc1ccc(OC)c(S(=O)(=O)N(CCN2CCOCC2)Cc2ccccc2)c1 [DNDI0003368294],> 64 µM,227 µL/min/mg,52.7 nm/s,> 64 µM,9.12 µM,9.06 µM,> 64 µM,3.4,–,–,–,–,–,–,–,–
COc1ccc(OC)c(S(=O)(=O)N(Cc2ccc(F)cc2)Cc2nc(C)no2)c1 [DNDI0003368295],> 64 µM,350 µL/min/mg,89.2 nm/s,30 µM,7.76 µM,7.75 µM,> 64 µM,–,–,–,–,–,–,–,–,–
COc1ccc(C(=O)N2CCOCC2)cc1S(=O)(=O)N(Cc1ccccc1)Cc1ccccc1 [DNDI0003368296],45.2 µM,810 µL/min/mg,61.9 nm/s,> 64 µM,0.457 µM,0.46 µM,> 64 µM,–,–,–,–,–,–,–,–,–
COc1ccc(C(=O)N2CCCC2)cc1S(=O)(=O)N(Cc1ccccc1)Cc1ccccc1 [DNDI0003368297],32 µM,796 µL/min/mg,49.1 nm/s,> 64 µM,0.49 µM,0.48 µM,> 64 µM,4.1,–,–,–,–,–,–,–,–
CNC(=O)c1ccc(OC)c(S(=O)(=O)N(Cc2ccccc2)Cc2ccccc2)c1 [DNDI0003368298],50.8 µM,316 µL/min/mg,104 nm/s,> 64 µM,0.708 µM,0.71 µM,4.87 µM,3.8,–,–,–,–,–,–,–,–
COc1ncccc1S(=O)(=O)N(Cc1ccccc1)Cc1ccccc1 [DNDI0003368299],> 64 µM,849 µL/min/mg,20.5 nm/s,6.34 µM,0.646 µM,0.64 µM,3.81 µM,–,–,–,–,–,–,–,–,–
COCCN(Cc1ccc(F)cc1)S(=O)(=O)c1cc(C#N)ccc1OC [DNDI0003368395],> 64 µM,< 23 µL/min/mg,153 nm/s,> 64 µM,8.91 µM,8.88 µM,> 64 µM,–,–,–,–,–,–,–,–,–
O=S1(=O)NC(Cc2ccccc2)COc2ccc(F)cc21 (stereo not shown) [DNDI0003368460],> 64 µM,–,262 nm/s,> 64 µM,> 64 µM,> 64 µM,> 64 µM,3.3,–,–,–,–,–,–,–,–
COC(=O)C(Cc1ccccc1)NS(=O)(=O)c1ccccc1Br (stereo not shown) [DNDI0003369003],> 64 µM,–,204 nm/s,58 µM,> 64 µM,> 64 µM,> 64 µM,3.4,–,–,–,–,–,–,–,–
C=C(c1ccc(F)cc1)N(Cc1ccccc1)S(=O)(=O)c1cc(Cl)ccc1O [DNDI0003371156],8 µM,–,14.1 nm/s,2.26 µM,7.41 µM,7.44 µM,3.61 µM,5.1,–,–,–,–,–,–,–,–
CNCCOc1ccc(F)cc1S(=O)(=O)N(Cc1ccc(F)cc1)Cc1ccc(F)cc1 [DNDI0003389318],–,–,–,–,2.4 µM,–,4.22 µM,5.3,8 µM,46 µL/min/mg,84 µL/min/mg,6.84 µM,4.3 nm/s,5.11 µM,2.38 µM,7.25 µM
CS(=O)(=O)c1ccccc1S(=O)(=O)N(Cc1ccccc1)Cc1ccccc1 [DNDI0003389642],–,–,–,–,32.4 µM,–,> 64 µM,4.1,> 64 µM,248 µL/min/mg,502 µL/min/mg,> 64 µM,62.5 nm/s,24.3 µM,32 µM,38.1 µM
COc1ccc(S(=O)(=O)N2CCOCC2)cc1C(=O)N(Cc1ccc(F)cc1)Cc1ccc(F)cc1 [DNDI0003389643],–,–,–,–,17 µM,–,> 64 µM,3.9,> 64 µM,717 µL/min/mg,610 µL/min/mg,> 64 µM,41.4 nm/s,16.6 µM,16.9 µM,> 64 µM
COc1ccc(N2CCN(C)CC2)cc1S(=O)(=O)N(Cc1ccc(F)cc1)Cc1ccc(F)cc1 [DNDI0003389645],–,–,–,–,0.398 µM,–,28.7 µM,4.4,8 µM,152 µL/min/mg,212 µL/min/mg,26.8 µM,7.1 nm/s,2.8 µM,0.4 µM,8.45 µM
O=S(=O)(c1ccccn1)N(Cc1ccccc1)Cc1ccccc1 [DNDI0003389646],–,–,–,–,16.2 µM,–,> 64 µM,4,> 64 µM,218 µL/min/mg,449 µL/min/mg,> 64 µM,95.5 nm/s,27.7 µM,16.1 µM,33.8 µM
O=S(=O)(c1cc(N2CCOCC2)ccc1OC(F)F)N(Cc1ccc(F)cc1)Cc1ccc(F)cc1 [DNDI0003389647],–,–,–,–,0.501 µM,–,> 64 µM,4.8,45.2 µM,153 µL/min/mg,462 µL/min/mg,> 64 µM,1.2 nm/s,5.62 µM,0.5 µM,37.6 µM
COc1ccc(CN(Cc2ccc(F)cc2)S(=O)(=O)c2cc(F)ccc2OCC[N+](C)(C)CC(=O)O)cc1 [DNDI0003389931],–,–,–,–,> 64 µM,–,> 64 µM,3.8,> 64 µM,14 µL/min/mg,17 µL/min/mg,> 64 µM,3.6 nm/s,13.1 µM,> 64 µM,61.1 µM
COc1ccc(Cl)cc1S(=O)(=O)N(Cc1ccccc1)CC(N)c1ccc(F)cc1 (stereo not shown) [DNDI0003389932],–,–,–,–,6.46 µM,–,14 µM,4.3,32 µM,34 µL/min/mg,239 µL/min/mg,19.5 µM,5.9 nm/s,4.64 µM,6.39 µM,> 64 µM
COc1ccc(Cl)cc1S(=O)(=O)N(Cc1ccccc1)C(CO)CO [DNDI0003389933],–,–,–,–,57.5 µM,–,> 64 µM,3.2,> 64 µM,109 µL/min/mg,253 µL/min/mg,> 64 µM,132 nm/s,14.3 µM,57 µM,> 64 µM
